Reference: patent US7709223B2, “Method for detecting bacteria with chromogenic substrates for β-D-ribofuranosidase” (priority 2001, dated 2010)
Structures can show the parent of a compound that is named as a salt.

System: Staphylococcus aureus
Assay: Hydrolysis on Columbia agar with ferric ammonium citrate
Type: cell-based
Set-up: key to the marks not given beside the values
Description: The chromogenic β-D-ribofuranoside substrate was added to Columbia agar at a substrate concentration of 300 mg/l. Ferric ammonium citrate was included at 500 mg/l. All ingredients were autoclaved at 116° C. for 20 minutes to ensure sterilisation. Agar plates were then prepared in 90 mm petri dishes. The substrate caused a yellow colouration of the agar.
For each strain tested, a bacterial suspension was prepared in sterile deionised water at an inoculum of approximately 1.5×10^8 colony forming units per ml. This was achieved using a densitometer. 1 μl of each bacterial suspension was then inoculated onto each plate using a multipoint inoculator. Strains were inoculated in parallel onto Columbia agar containing ferric ammonium citrate with no substrate (negative control).
After 18 hours incubation, strains were examined visually for the presence of colour. Any strains producing a black colouration on substrate containing media but not on the negative control plates were deemed to be hydrolysing the substrate.

Measured: β-Ribofuranoside (hydrolysis)

O=c1cc(-c2ccc(OC3OC(CO)C(O)C3O)c(O)c2)oc2ccccc12 [DHF-riboside, 3′,4′-Dihydroxyflavone-4′-β-D-ribofuranoside sodium salt]
++: Reference No. 1 | Reference No. 2 | Reference No. 3 | Reference No. 4 | Reference No. 5
